Experimental findings from patent US10851401B2, “Broth microdilution method for evaluating and determining minimal inhibitory concentration of antibacterial polypeptides” (priority 2016, dated 2020) are described below.

The experiment has as its system Staphylococcus aureus strains including MSSA and MRSA strains. As to the kind of experiment: Vancomycin in modified BMD method versus standard unsupplemented CA-MHB (FIG. 10). In kind it is cell-based. The settings on record: comparison of the two media. Here is the method: FIG. 10 depicts vancomycin activity assessed using the modified BMD method in comparison to method with standard CAMHB broth unsupplemented. Various Staphylococcus aureus strains including MSSA and MRSA strains were evaluated.
Standard antibiotic vancomycin was evaluated in the modified BMD method. The MIC50, MIC90 and range were equivalent using standard CA-MHB versus CA-MHB supplemented with horse serum and DTT (FIG. 10).

Regarding `CN[C@H](CC(C)C)C(=O)N[C@H]1C(=O)N[C@@H](CC(N)=O)C(=O)N[C@H]2C(=O)N[C@H]3C(=O)N[C@H](C(=O)N[C@H](C(=O)O)c4cc(O)cc(O)c4-c4cc3ccc4O)[C@H](O)c3ccc(c(Cl)c3)Oc3cc2cc(c3O[C@@H]2O[C@H](CO)[C@@H](O)[C@H](O)[C@H]2O[C@H]2C[C@](C)(N)[C@H](O)[C@H](C)O2)Oc2ccc(cc2Cl)[C@H]1O` [vancomycin], the “MIC50, MIC90 and range, standard CA-MHB versus CA-MHB supplemented with horse serum and DTT” value is “equivalent”.
